Like-named read-outs stand apart in the source and are kept apart here.
How the values were obtained:
HSV-1 helicase-primase = molecular target: T1, HSV-1 helicase-primase (Human herpesvirus 1, UniProt P10189+P10236); experiment: HSV-1 DNA-dependent ATPase assay (inhibition of HSV-1 helicase-primase); type: biochemical
T1 construct: made in house; host or cells: Sf21 insect cells triply infected with recombinant baculoviruses (UL5, UL8, UL52)
In short: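 Holoenzyme (UL5/UL8/UL52) expressed in baculovirus-infected Sf21 cells and purified, used at 3 μg/mL with 4 mM ATP and 25 μM primed M13 ssDNA in HEPES pH 7.5, 5.5 mM MgCl2, 3.3% DMSO. Incubated 20 min at 34°. Released phosphate read by malachite green at 650 nm, and activity taken from net absorbance with versus without inhibitor.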

HCMV (strain AD169) = experiment: Inhibition of HCMV replication, plaque reduction assay (PRA, Hs-68 cells); type: cell-based, Human Cytomegalovirus (HCMV); conditions: read-out: PRA CMV EC50
In short: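 Hs-68 monolayers (80–90% confluent) were infected with ~50 PFU HCMV AD169 for 2 h at 37°, then given compound in DMEM/5% inactivated FBS, refreshed after 4 days and kept 4 more days. Plaques were counted after formaldehyde fixation and crystal violet staining. EC50 derives from percent plaque reduction versus untreated wells.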

[1] = Human betaherpesvirus 5, AD169, Hs68, Group 1 Table 3 entries
[2] = Group 1 Table 2 entries (Q = CH2)
[3] = Human betaherpesvirus 5, AD169, Hs68, Group 1 Table 2 entries
[4] = Human betaherpesvirus 5, AD169, Hs68, Group 1 Table 1 entries
[5] = Human betaherpesvirus 5, AD169, Hs68, Group 1 Table 5 entries

T1 sequence (P10192 whole entry): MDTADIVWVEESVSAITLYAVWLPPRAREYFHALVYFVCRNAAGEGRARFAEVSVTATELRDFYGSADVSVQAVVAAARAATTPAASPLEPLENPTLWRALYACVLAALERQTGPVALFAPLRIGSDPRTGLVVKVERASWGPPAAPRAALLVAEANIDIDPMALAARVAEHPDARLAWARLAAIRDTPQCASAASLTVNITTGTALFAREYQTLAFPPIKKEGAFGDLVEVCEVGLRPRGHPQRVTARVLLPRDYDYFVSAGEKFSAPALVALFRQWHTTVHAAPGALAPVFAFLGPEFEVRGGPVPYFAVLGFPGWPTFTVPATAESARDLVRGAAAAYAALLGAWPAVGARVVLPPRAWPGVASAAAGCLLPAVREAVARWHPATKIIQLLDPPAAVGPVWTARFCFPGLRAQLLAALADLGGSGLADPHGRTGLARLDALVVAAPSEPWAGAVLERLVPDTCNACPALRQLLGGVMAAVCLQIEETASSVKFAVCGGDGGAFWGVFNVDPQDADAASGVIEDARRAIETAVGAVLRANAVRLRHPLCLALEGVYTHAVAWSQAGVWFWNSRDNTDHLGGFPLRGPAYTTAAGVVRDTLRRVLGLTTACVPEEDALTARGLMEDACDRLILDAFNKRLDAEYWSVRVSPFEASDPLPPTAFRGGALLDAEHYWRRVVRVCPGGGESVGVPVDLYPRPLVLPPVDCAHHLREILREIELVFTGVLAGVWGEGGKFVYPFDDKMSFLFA
T1 sequence (P10236 whole entry): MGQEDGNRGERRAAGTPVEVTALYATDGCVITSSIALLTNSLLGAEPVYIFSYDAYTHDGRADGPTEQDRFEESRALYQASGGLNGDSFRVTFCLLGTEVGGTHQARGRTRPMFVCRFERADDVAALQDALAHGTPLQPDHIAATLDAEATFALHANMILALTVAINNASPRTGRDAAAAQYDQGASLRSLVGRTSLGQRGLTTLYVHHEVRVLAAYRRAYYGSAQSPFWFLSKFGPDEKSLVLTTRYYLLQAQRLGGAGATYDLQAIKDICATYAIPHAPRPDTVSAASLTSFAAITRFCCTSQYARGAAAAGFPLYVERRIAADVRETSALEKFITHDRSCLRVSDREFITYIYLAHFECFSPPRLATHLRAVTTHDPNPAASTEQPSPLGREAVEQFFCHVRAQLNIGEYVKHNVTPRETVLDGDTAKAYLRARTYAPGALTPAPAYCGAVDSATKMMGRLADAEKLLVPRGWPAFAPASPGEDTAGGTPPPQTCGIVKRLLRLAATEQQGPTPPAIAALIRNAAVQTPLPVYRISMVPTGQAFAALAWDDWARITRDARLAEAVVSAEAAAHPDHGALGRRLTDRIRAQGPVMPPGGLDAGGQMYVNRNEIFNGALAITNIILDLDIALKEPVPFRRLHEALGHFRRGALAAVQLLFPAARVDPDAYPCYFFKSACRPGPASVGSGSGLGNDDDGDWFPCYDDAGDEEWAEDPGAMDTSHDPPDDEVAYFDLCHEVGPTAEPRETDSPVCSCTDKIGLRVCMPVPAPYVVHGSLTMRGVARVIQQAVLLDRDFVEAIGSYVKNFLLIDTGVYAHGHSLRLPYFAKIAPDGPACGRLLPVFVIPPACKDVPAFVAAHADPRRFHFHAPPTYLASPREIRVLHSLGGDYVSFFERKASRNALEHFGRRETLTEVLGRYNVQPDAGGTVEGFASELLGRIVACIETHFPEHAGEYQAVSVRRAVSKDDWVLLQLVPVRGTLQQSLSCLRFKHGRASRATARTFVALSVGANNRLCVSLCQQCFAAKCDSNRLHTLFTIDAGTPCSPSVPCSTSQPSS
T1 sequence (P10189 whole entry): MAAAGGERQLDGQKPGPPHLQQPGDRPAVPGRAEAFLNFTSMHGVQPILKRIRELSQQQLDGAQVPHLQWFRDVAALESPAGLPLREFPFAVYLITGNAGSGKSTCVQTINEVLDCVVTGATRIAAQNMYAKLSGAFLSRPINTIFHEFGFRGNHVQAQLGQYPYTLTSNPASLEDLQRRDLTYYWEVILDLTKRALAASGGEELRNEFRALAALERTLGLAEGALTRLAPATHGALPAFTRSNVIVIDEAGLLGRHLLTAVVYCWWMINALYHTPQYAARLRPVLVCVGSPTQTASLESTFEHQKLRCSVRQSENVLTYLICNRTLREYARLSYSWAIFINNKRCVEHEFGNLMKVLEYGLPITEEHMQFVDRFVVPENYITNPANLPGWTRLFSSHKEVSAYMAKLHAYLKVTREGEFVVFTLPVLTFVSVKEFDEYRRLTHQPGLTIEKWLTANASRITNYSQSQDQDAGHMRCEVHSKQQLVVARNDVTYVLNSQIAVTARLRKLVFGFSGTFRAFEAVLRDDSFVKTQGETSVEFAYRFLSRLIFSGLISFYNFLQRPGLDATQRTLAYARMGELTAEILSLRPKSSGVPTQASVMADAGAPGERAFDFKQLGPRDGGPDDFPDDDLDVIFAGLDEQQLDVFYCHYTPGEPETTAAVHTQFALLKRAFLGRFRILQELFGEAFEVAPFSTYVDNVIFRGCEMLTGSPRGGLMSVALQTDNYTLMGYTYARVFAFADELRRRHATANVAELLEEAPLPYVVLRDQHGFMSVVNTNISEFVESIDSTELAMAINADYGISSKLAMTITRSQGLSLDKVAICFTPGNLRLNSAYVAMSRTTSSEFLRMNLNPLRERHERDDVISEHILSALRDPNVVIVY

## CN(C(=O)CN(Cc1ccccc1)C(=O)C1CCCCC1)c1ccc(-c2csc(N)n2)cc1 [Example 1]
HSV-1 helicase-primase; Group 1 Table 3 entries
  IC50: 0.053 µM
HCMV (strain AD169); [1]
  EC50: 24 µM

## Nc1nc(-c2ccc(NC(=O)CCNCc3ccccc3)cc2)cs1 [Example 1]
HSV-1 helicase-primase; [2]
  IC50: 21 µM
HCMV (strain AD169); [3]
  EC50: 30 µM

## Nc1nc(-c2ccc(NC(=O)CNCc3ccccc3)cc2)cs1 [Example 1]
HSV-1 helicase-primase; Group 1 Table 1 entries
  IC50: 6.4 µM
HCMV (strain AD169); [4]
  EC50: > 60 µM

## Nc1nc(-c2ccc(NC(=O)CCN(Cc3ccccc3)Cc3ccccc3)cc2)cs1 [Example 2]
HSV-1 helicase-primase; [2]
  IC50: 1.2 µM
HCMV (strain AD169); [3]
  EC50: 4.7 µM

## CC(C)(C)OC(=O)N[C@@H](Cc1ccccc1)C(=O)Nc1ccc(-c2csc(N)n2)cc1 [Example 3]
HSV-1 helicase-primase; Group 1 Table 5 entries
  IC50: 0.046 µM
HCMV (strain AD169); [5]
  EC50: 24 µM

## Nc1nc(-c2ccc(NC(=O)CCN(Cc3ccccc3)C(=O)c3ccccc3)cc2)cs1 [Example 3]
HSV-1 helicase-primase; [2]
  IC50: 2.1 µM
HCMV (strain AD169); [3]
  EC50: 9.2 µM

## CC(C)(C)OC(=O)N[C@H](Cc1ccccc1)C(=O)Nc1ccc(-c2csc(N)n2)cc1 [Example 4]
HSV-1 helicase-primase; Group 1 Table 5 entries
  IC50: 1.5 µM
HCMV (strain AD169); [5]
  EC50: 22 µM

## O=C(CN(Cc1ccccc1)C(=O)C1CCCCC1)Nc1ccc(-c2cscn2)cc1 [Example 5]
HSV-1 helicase-primase; Group 1 Table 3 entries
  IC50: 0.1 µM
HCMV (strain AD169); [1]
  EC50: 16 µM

## CNc1nc(-c2ccc(NC(=O)CN(Cc3ccccc3)C(=O)c3ccccc3)cc2)cs1 [Example 6]
HSV-1 helicase-primase; Group 1 Table 3 entries
  IC50: 0.33 µM
HCMV (strain AD169); [1]
  EC50: 16 µM

## Nc1nc(-c2ccc(NC(=O)[C@H](Cc3ccccc3)NCc3ccccc3)cc2)cs1 [Example 6]
HSV-1 helicase-primase; Group 1 Table 5 entries
  IC50: 1.06 µM
HCMV (strain AD169); [5]
  EC50: 7 µM

## CN[C@@H](Cc1ccccc1)C(=O)Nc1ccc(-c2csc(N)n2)cc1 [Example 8]
HSV-1 helicase-primase; Group 1 Table 5 entries
  IC50: 45 µM
HCMV (strain AD169); [5]
  EC50: 33 µM

## Nc1nc(-c2ccc(NC(=O)[C@@H](Cc3ccccc3)N(Cc3ccccc3)C(=O)C3CCCCC3)cc2)cs1 [Example 9]
HSV-1 helicase-primase; Group 1 Table 5 entries
  IC50: 0.052 µM
HCMV (strain AD169); [5]
  EC50: 8.7 µM

## CN(C)c1nc(-c2ccc(NC(=O)CN(Cc3ccccc3)C(=O)c3ccccc3)cc2)cs1 [Example 11]
HSV-1 helicase-primase; Group 1 Table 3 entries
  IC50: > 50 µM
HCMV (strain AD169); [1]
  EC50: 18 µM

## C[C@@H](NCC(=O)Nc1ccc(-c2csc(N)n2)cc1)c1ccccc1 [Example 11]
HSV-1 helicase-primase; Group 1 Table 1 entries
  IC50: 3.7 µM
HCMV (strain AD169); [4]
  EC50: 19 µM

## Nc1nc(-c2ccc(NC(=O)CCN(C(=O)c3cccnc3)C3Cc4ccccc4C3)cc2)cs1 [Example 12]
HSV-1 helicase-primase; [2]
  IC50: 10 µM
HCMV (strain AD169); [3]
  EC50: 8 µM

## CC(C)(C)OC(=O)N(CCC(=O)Nc1ccc(-c2csc(N)n2)cc1)C1Cc2ccccc2C1 [Example 14]
HSV-1 helicase-primase; [2]
  IC50: 1.7 µM
HCMV (strain AD169); [3]
  EC50: > 28 µM

## CC(C)(C)OC(=O)N(CCC(=O)Nc1ccc(-c2csc(N)n2)cc1)Cc1ccccc1 [Example 15]
HSV-1 helicase-primase; [2]
  IC50: 0.28 µM
HCMV (strain AD169); [3]
  EC50: 9 µM

## CN(CC(=O)Nc1ccc(-c2csc(N)n2)cc1)Cc1ccccc1 [Example 15]
HSV-1 helicase-primase; Group 1 Table 1 entries
  IC50: 3.3 µM
HCMV (strain AD169); [4]
  EC50: 6.5 µM

## Nc1nc(-c2ccc(NC(=O)CN(Cc3ccccc3)Cc3ccccc3)cc2)cs1 [Example 16]
HSV-1 helicase-primase; Group 1 Table 1 entries
  IC50: 0.55 µM
HCMV (strain AD169); [4]
  EC50: 13 µM

## Nc1nc(-c2ccc(NC(=O)CCN(Cc3ccccc3)CC3CCCCC3)cc2)cs1 [Example 17]
HSV-1 helicase-primase; [2]
  IC50: 0.76 µM
HCMV (strain AD169); [3]
  EC50: > 5 µM

## CC(=O)Nc1nc(-c2ccc(NC(=O)CN(Cc3ccccc3)C(C)=O)cc2)cs1 [Example 18]
HSV-1 helicase-primase; Group 1 Table 3 entries
  IC50: > 100 µM
HCMV (strain AD169); [1]
  EC50: > 81 µM

## C[C@@H](c1ccccc1)N(CCC(=O)Nc1ccc(-c2csc(N)n2)cc1)C(=O)OC(C)(C)C [Example 18]
HSV-1 helicase-primase; [2]
  IC50: 1 µM
HCMV (strain AD169); [3]
  EC50: 3.3 µM

## C[C@@H](c1ccccc1)N(CCC(=O)Nc1ccc(-c2csc(N)n2)cc1)Cc1ccccc1 [Example 19]
HSV-1 helicase-primase; [2]
  IC50: 0.46 µM
HCMV (strain AD169); [3]
  EC50: 4 µM

## CC(C)c1nc(-c2ccc(NC(=O)CN(Cc3ccccc3)C(=O)c3ccccc3)cc2)cs1 [Example 20]
HSV-1 helicase-primase; Group 1 Table 3 entries
  IC50: > 50 µM
HCMV (strain AD169); [1]
  EC50: 70 µM

## C[C@H](NCCC(=O)Nc1ccc(-c2csc(N)n2)cc1)c1ccccc1 [Example 20]
HSV-1 helicase-primase; [2]
  IC50: 7.2 µM
HCMV (strain AD169); [3]
  EC50: 13 µM

## CC(C)(C)OC(=O)N(CCC(=O)Nc1ccc(-c2csc(N)n2)cc1)CC1CCCCC1 [Example 21]
HSV-1 helicase-primase; [2]
  IC50: 0.028 µM
HCMV (strain AD169); [3]
  EC50: 6.5 µM

## Nc1nc(-c2ccc(NC(=O)CN(Cc3ccccc3)C(=O)c3ccccc3)cc2)cs1 [Example 23]
HSV-1 helicase-primase; Group 1 Table 1 entries
  IC50: 0.072 µM
HCMV (strain AD169); [4]
  EC50: 36 µM

## Nc1nc(-c2ccc(NC(=O)CCN(CC3CCCCC3)C(=O)c3cccnc3)cc2)cs1 [Example 24]
HSV-1 helicase-primase; [2]
  IC50: 1.2 µM
HCMV (strain AD169); [3]
  EC50: 31 µM

## Nc1nc(-c2ccc(NC(=O)CN(Cc3ccccc3)C(=O)c3ccc(F)cc3)cc2)cs1 [Example 24]
HSV-1 helicase-primase; Group 1 Table 1 entries
  IC50: 0.048 µM
HCMV (strain AD169); [4]
  EC50: 15 µM

## C[C@@H](NCCC(=O)Nc1ccc(-c2csc(N)n2)cc1)c1ccccc1 [Example 25]
HSV-1 helicase-primase; [2]
  IC50: 13.6 µM
HCMV (strain AD169); [3]
  EC50: > 6 µM

Reference: patent US6288091A, “Antiherpes virus compounds and methods for their preparation and use” (Boehringer Ingelheim Ltd., priority 1999, dated 2001)
